Results: article PMC5845353, “The selective cathepsin K inhibitor MIV-711 attenuates joint pathology in experimental animal models of osteoarthritis” (Journal of Translational Medicine, 2018)
Several values for one entry are separate records, joined by “and”; a condition that tells them apart may be missing. Equal values may be shown once.

Key:
[1] = test system: dogs subjected to partial medial meniscectomy; assay: Dog partial medial meniscectomy study, microscopic cartilage degeneration scores; type: in vivo; design: key to Total Joint CD Score: sum of tibial and femoral degeneration scores (1=minimal…3=moderate)
Excerpt: The proximal end of the left tibia and the distal end of the left femur were removed using a hacksaw and collected into 10% neutral buffered formalin. Bones were allowed to fix for 5 days and then the tissues were placed in formic acid decalcifier (5-20%). After decalcification, the surface area at risk for lesion development of the tibia (medial and lateral plateaus) and femur (medial and lateral condyles) was divided into 3 slabs (anterior to posterior) approximately 2-4 mm thick for processing, embedding, sectioning (8 µm) and staining (Toluidine Blue). The lesions are in reasonably consistent locations in all animals, therefore, the same surfaces and area were consistently embedded for all animals. Blocks containing tissue were numbered 1-3 with 1 being the most anterior piece. In all cases, the anterior aspect of the tissue was embedded down in the cassette for sectioning.
Compartmentalized lesions on medial tibia and medial femur (cartilage degeneration and osteophytes) were scored for each of the 3 (anterior to posterior) sections using the following system:
1=minimal degeneration, chondrocyte and proteoglycan loss with or without fibrillation involving the superficial zone or extending into the upper 10% of the cartilage thickness or at least 5% but not more than 10% overall total proteoglycan and cell loss in the zone if lesion is focal and deeper in some areas. Deeper and more extensive proteoglycan loss only without any evidence of chondrocyte loss and collagen damage is also given a score of 1 as this is a minor and reversible change
2=mild degeneration, chondrocyte and proteoglycan loss with fibrillation involving mainly the upper 11-25% of cartilage thickness, fibrillation generally superficial (upper 10%) while chondrocyte and proteoglycan loss extend into approximately 11-25% of the cartilage depth, or 11-25% overall chondrocyte and proteoglycan loss in the zone if lesion is focal and deeper in some areas. Deeper areas of proteoglycan loss only, without chondrocyte loss or collagen disruption (reversible changes) may be present
3=moderate degeneration, chondrocyte and proteoglycan loss with fibrillation extending well into the midzone and generally affecting 1/2 (50%) of the total cartilage thickness, fibrillation/collagen damage generally extends into upper 25% while chondrocyte and proteoglycan loss extend through 50% thickness, or 26-50% overall chondrocyte and proteoglycan loss in the zone if lesion is focal and deeper in some areas. Deeper areas of proteoglycan loss only, without chondrocyte loss or collagen disruption (reversible changes) may be present
4=marked degeneration, chondrocyte and proteoglycan loss with fibrillation extending through the mid zone through 3/4 f the depth (51-75% of cartilage thickness) but without complete (to the tidemark) loss of chondrocytes or proteoglycan, fibrillation/collagen damage generally extend through the mid zone (50% thickness) but deep zone collagen remains intact, or 51-75% overall chondrocyte and proteoglycan loss in the zone if lesion is focal and deeper in some areas. Deeper areas of proteoglycan loss only, without chondrocyte loss or collagen disruption (reversible changes) may be present
5=severe degeneration, chondrocyte and proteoglycan loss to near tidemark (76-100% of depth) with slightly less severe collagen damage or 76-100% overall chondrocyte and proteoglycan loss in the zone.
Each medial tibial plateau and medial femoral condyle anterior to posterior section was further divided visually with an ocular micrometer into fourths and numbered 1,2,3,4 with 1 being the outside and 4 being the inside quadrant. A mean score for the four levels was calculated. In addition, means of the 3 sections for each quadrant were determined in order to convey lesion severity in various axial to abaxial locations. Overall tibial and femoral values were summed for a total joint cartilage degeneration score.

[2] = test system: Knee OA patients; conditions: once daily treatment for 6 months; cited from earlier work
[3] = individual dogs of MIV-711 group
[4] = individual dogs of MIV-711 group, score=depth (1-5), mean of 4 quadrants

C#C[C@@H]1CN(C(=O)[C@H](CC(C)C)NC(=O)c2ccc(-c3nc(N4CCN(C)CC4)sc3F)cc2)[C@@H]2C(=O)CO[C@H]12 [MIV-711]
Femur Cartilage Degeneration Score Level 1 ([1]; MIV-711 group mean): 0.57 | Femur Cartilage Degeneration Score Level 2 ([1]; MIV-711 group mean): 0.65 | Femur Cartilage Degeneration Score Level 3 ([1]; MIV-711 group mean): 0.77 | Femur Cartilage Degeneration Score Mean ([1]; MIV-711 group mean): 0.66 | Femur Cartilage Degeneration Score Zone 1 ([1]; MIV-711 group mean): 1.16 | Femur Cartilage Degeneration Score Zone 2 ([1]; MIV-711 group mean): 1.09 | Femur Cartilage Degeneration Score Zone 3 ([1]; MIV-711 group mean): 0.33 | Femur Cartilage Degeneration Score Zone 4 ([1]; MIV-711 group mean): 0.07 | Tibia Cartilage Degeneration Score Level 1 ([1]; MIV-711 group mean): 0.60 | Tibia Cartilage Degeneration Score Level 2 ([1]; MIV-711 group mean): 1.22 | Tibia Cartilage Degeneration Score Level 3 ([1]; MIV-711 group mean): 0.92 | Tibia Cartilage Degeneration Score Mean ([1]; MIV-711 group mean): 0.91 | Tibia Cartilage Degeneration Score Zone 1 ([1]; MIV-711 group mean): 0.33 | Tibia Cartilage Degeneration Score Zone 2 ([1]; MIV-711 group mean): 1.76 | Tibia Cartilage Degeneration Score Zone 3 ([1]; MIV-711 group mean): 1.02 | Tibia Cartilage Degeneration Score Zone 4 ([1]; MIV-711 group mean): 0.53 | Total Joint CD Score ([1]; MIV-711 group mean): 1.57 | % inhibition, Femur Cartilage Degeneration Score Level 1 ([1]; MIV-711 group vs vehicle): 13% | % inhibition, Femur Cartilage Degeneration Score Level 2 ([1]; MIV-711 group vs vehicle): 0% | % inhibition, Femur Cartilage Degeneration Score Level 3 ([1]; MIV-711 group vs vehicle): 8% | % inhibition, Femur Cartilage Degeneration Score Mean ([1]; MIV-711 group vs vehicle): 7% | % inhibition, Femur Cartilage Degeneration Score Zone 1 ([1]; MIV-711 group vs vehicle): -6% | % inhibition, Femur Cartilage Degeneration Score Zone 2 ([1]; MIV-711 group vs vehicle): 6% | % inhibition, Femur Cartilage Degeneration Score Zone 3 ([1]; MIV-711 group vs vehicle): 32% | % inhibition, Femur Cartilage Degeneration Score Zone 4 ([1]; MIV-711 group vs vehicle): 40% | % inhibition, Tibia Cartilage Degeneration Score Level 1 ([1]; MIV-711 group vs vehicle): 41% | % inhibition, Tibia Cartilage Degeneration Score Level 2 ([1]; MIV-711 group vs vehicle): 9% | % inhibition, Tibia Cartilage Degeneration Score Level 3 ([1]; MIV-711 group vs vehicle): -38% | % inhibition, Tibia Cartilage Degeneration Score Mean ([1]; MIV-711 group vs vehicle): 9% | % inhibition, Tibia Cartilage Degeneration Score Zone 1 ([1]; MIV-711 group vs vehicle): 48% | % inhibition, Tibia Cartilage Degeneration Score Zone 2 ([1]; MIV-711 group vs vehicle): 0% | % inhibition, Tibia Cartilage Degeneration Score Zone 3 ([1]; MIV-711 group vs vehicle): 8% | % inhibition, Tibia Cartilage Degeneration Score Zone 4 ([1]; MIV-711 group vs vehicle): -4% | % inhibition, Total Joint CD Score ([1]; MIV-711 group vs vehicle): 8% | decrease in cartilage degeneration scores in level 1 (anterior) of the tibia ([1]; dog, 30 µmol/kg vs vehicle, statistically significant): 41% | Femur Cartilage Degeneration Score Zone 1 [1, 3]: 1.00 and 0.33 and 2.00 and 1.33 and 0.67 | Femur Cartilage Degeneration Score Zone 2 [1, 3]: 1.33 and 1.67 and 0.00 and 2.00 and 1.00 and 0.33 and 2.33 | Femur Cartilage Degeneration Score Zone 3 [1, 3]: 0.33 and 0.00 and 1.33 and 1.67 | Femur Cartilage Degeneration Score Zone 4 [1, 3]: 0.00 and 0.33 | Tibia Cartilage Degeneration Score Zone 1 [1, 3]: 0.33 and 0.67 and 0.00 and 1.00 | Tibia Cartilage Degeneration Score Zone 2 [1, 3]: 1.67 and 1.33 and 2.00 and 2.33 | Tibia Cartilage Degeneration Score Zone 3 [1, 3]: 1.33 and 1.00 and 1.67 and 0.67 and 0.33 | Tibia Cartilage Degeneration Score Zone 4 [1, 3]: 0.67 and 0.33 and 0.00 and 1.00 | Total Joint CD Score [1, 3]: 1.08 and 1.67 and 1.75 and 0.75 and 2.42 and 1.33 and 1.50 and 1.25 and 2.00 and 1.83 and 3.00 | Femur Cartilage Degeneration Score Level 1 [1, 4]: 0.50 and 0.25 and 0.75 and 1.00 | Femur Cartilage Degeneration Score Level 2 [1, 4]: 0.50 and 1.00 and 0.00 and 1.75 and 0.75 and 0.25 | Femur Cartilage Degeneration Score Level 3 [1, 4]: 0.50 and 1.00 and 0.00 and 1.50 and 0.25 and 1.25 and 0.75 and 2.00 | Femur Cartilage Degeneration Score Mean [1, 4]: 0.50 and 0.67 and 0.83 and 0.08 and 1.33 and 0.58 and 0.33 and 0.25 and 1.58 | Tibia Cartilage Degeneration Score Level 1 [1, 4]: 0.25 and 0.00 and 0.50 and 1.25 and 0.75 and 1.00 and 1.50 | Tibia Cartilage Degeneration Score Level 2 [1, 4]: 1.00 and 1.25 and 1.75 and 1.50 and 0.50 | Tibia Cartilage Degeneration Score Level 3 [1, 4]: 0.50 and 1.50 and 1.00 and 1.25 and 0.75 and 0.00 | Tibia Cartilage Degeneration Score Mean [1, 4]: 0.58 and 1.00 and 0.92 and 0.67 and 1.08 and 0.75 and 1.17 and 0.42 and 1.42 | benefit on joint structure by MRI compared to placebo [2]: significantly lower increases in bone area and cartilage thinning
